Our source for the pKa and IC50 values is ChEMBL document CHEMBL1287680, “C-11 diamino cryptolepine derivatives NSC748392, NSC748393, and NSC748394: anticancer profile and G-quadruplex stabilization” (Bioorg Med Chem Lett, 2010).

A short description of data set [1]: physchem.
Description: Dissociation constant, pKa of the compound by UV-visible spectroscopy
Data set [2] concerns Vero. The data set can be described thus: cells. The settings on record: Chlorocebus sabaeus, 48 h.
Description: Cytotoxicity against african green monkey Vero cells after 48 hrs by MTT assay

As to `C[n+]1c2cc(Cl)ccc2c(NC2CCNCC2)c2[nH]c3ccccc3c21`, the pKa in data set [1] was 11.1. This molecule also came in with an IC50 in data set [2] of 4.4 µM.

Turning to `CC(C)CN1CCC(Nc2c3ccccc3[n+](C)c3c2[nH]c2ccccc23)CC1`, the pKa in data set [1] is 11.6. For the same molecule, 5 µM corresponded to half-maximal inhibition in data set [2] (IC50).

Regarding `CCN(CC)CCCNc1c2ccc(Cl)cc2[n+](C)c2c1[nH]c1ccccc12`, the pKa in data set [1] was 11.2. In data set [2], half-maximal inhibition (IC50) required 1.3 µM.

On to `CCN(CC)Cc1ccc(Nc2c3ccccc3[n+](C)c3c2[nH]c2ccccc23)cc1O`, for which the pKa in data set [1] stood at 10.8. In addition, the midpoint of inhibition in data set [2], the IC50, lay at 0.8 µM.

Regarding `CC(C)NCCCNc1c2ccccc2[n+](C)c2c1[nH]c1ccccc12`, in data set [1], the pKa was determined as 11.5. This molecule also registered a concentration for half-maximal inhibition (IC50) in data set [2] of 3 µM.

In data set [1], `C[n+]1c2ccccc2c(Nc2ccccc2)c2[nH]c3ccccc3c21` displayed a pKa of 10.6. The 50% inhibitory concentration (IC50) in data set [2] came to 0.6 µM.

For the molecule `C[n+]1c2ccccc2c(NC2CCN(Cc3ccccc3)CC2)c2[nH]c3ccccc3c21`, in data set [1], the pKa was found to be 11.5. Also, in data set [2], the IC50 is 2.2 µM.

`CN(C)CC(C)(C)CNc1c2ccccc2[n+](C)c2c1[nH]c1ccccc12` showed a pKa in data set [1] of 11.7. For the same molecule, in data set [2], the half-maximal inhibitory concentration (IC50) amounted to 3 µM.

The molecule `CN(C)CCNc1c2ccccc2[n+](C)c2c1[nH]c1ccccc12` showed a pKa in data set [1] of 11.6. Half-maximal inhibition in data set [2] (IC50) required 5.5 µM.

In the case of `CCN(CC)CCNc1c2ccccc2[n+](C)c2c1[nH]c1ccccc12`, the pKa in data set [1] stood at 11.6. Besides, in data set [2], the midpoint of inhibition, the IC50, lay at 2.8 µM.

In data set [1], `CCN(CC)CCCNc1c2ccccc2[n+](C)c2c1[nH]c1ccccc12` yielded a pKa of 11.6. Also, half-maximal inhibition in data set [2] (IC50) required 2.5 µM.

Turning to `C[n+]1c2ccccc2c(NC2CCN(Cc3ccccc3O)CC2)c2[nH]c3ccccc3c21`, the pKa in data set [1] amounted to 11.6. The same molecule gave an IC50 in data set [2] of 2.6 µM.

For the molecule `CN(C)CCCNc1c2ccccc2[n+](C)c2c1[nH]c1ccccc12`, in data set [1], the pKa was determined as 11.9. Also, the IC50 in data set [2] worked out at 2.2 µM.

Take `C[n+]1c2ccccc2c(Nc2cccnc2)c2[nH]c3ccccc3c21`: the pKa in data set [1] was determined as 10.3. In data set [2], this molecule registered a 50% inhibitory concentration (IC50) of 2.6 µM.

`C[n+]1c2cc(Cl)ccc2c(NC2CCNCC2)c2[nH]c3cc(Cl)ccc3c21` displayed a pKa in data set [1] of 10.3. Besides, the IC50 in data set [2] was 0.8 µM.

Molecule `CCN(CC)c1c2ccccc2[n+](C)c2c1[nH]c1ccccc12` had an IC50 in data set [2] of 3 µM.

For the molecule `CC(CN(C)C)Nc1c2ccccc2[n+](C)c2c1[nH]c1ccccc12` (configuration not stated), in data set [1], the pKa was 11.6. Moreover, the IC50 in data set [2] was found to be 3 µM.

In turn, `CCN(CC)CCCC(C)Nc1c2ccccc2[n+](C)c2c1[nH]c1ccccc12` (configuration not stated) had a pKa in data set [1] of 11.4. Besides, the IC50 in data set [2] is 13 µM.

`C[n+]1c2ccccc2c(NCCCN2CCCCC2)c2[nH]c3ccccc3c21` gave a pKa in data set [1] of 11.7. Besides, in data set [2], the IC50 is 2 µM.

As a reminder, the pKa is the pH at which an ionisable group is half protonated. High values mean a group that holds its proton tightly, low ones a group that gives up its proton readily. For orientation: IC50 means the concentration that gives 50% inhibition.
